One molecule from publication PMC10857906, “PROTAC-mediated NR4A1 degradation as a novel strategy for cancer immunotherapy” (The Journal of Experimental Medicine, 2024) can be followed below.

Test [1] concerns the target T1, NR4A1 and VHL (Homo sapiens, UniProt P22736+P40337). The test can be described thus: Co-IP of Flag-NR4A1 and VHL in HEK293T cells. It is filed as cell-based. The note with it: 500 nM, 16 h, 0.5 μM MG132. The procedure:
HEK293T cells were transfected with 3 µg Flag-NR4A1 (HG17699-CF; SinoBiological) for 36 h in Opti-MEM (31985062; Thermo Fisher Scientific) medium with 10 µl GeneTran III reagent (GT2211; Biomiga).
HEK293T cells were transfected with Flag-NR4A1 for 36 h, following with treatment of either DMSO or 500 nM […] for 16 h, together with 500 nM MG132 included to prevent protein degradation. Proteins were extracted using RIPA lysis buffer without SDS (150 mM NaCl, 5 mM EDTA, 50 mM Tris, pH 8.0, 0.5% sodium deoxycholate, and 1% NP-40) supplemented with 1% protease inhibitor cocktail (C0001; TargetMol). IP was performed using Anti-FLAG M2 Magnetic Beads (M8823; Sigma-Aldrich) as per the manufacturer’s protocol. The immunoprecipitated samples were eluted with 2× SDS sample buffer and boiled for 5 min at 95°C. The samples were then subjected to denaturation, SDS-PAGE, and immunoblotting analysis.

The subject of a further test is splenic B cells. The test can be described thus: B cell proliferation assay (splenic B cells, B16F10 lysate, Cell Trace Violet). It is filed as cell-based, mouse. The following applies: WT B cells with B16F10 lysates, 250 or 500 nM, 24 h. The procedure:
B cells were isolated from the spleen by using EasySep Mouse B cell Isolation Kit (19854; STEMCELL) and cultured in RPMI supplemented with […] non-essential amino acids (11140050; Thermo Fisher Scientific), 1 mM sodium pyruvate (11360070; Thermo Fisher Scientific), 1 mM Glutamax, 10 mM HEPES (15630080; Thermo Fisher Scientific), 0.1% 2-mercaptoethanol (21985023; Thermo Fisher Scientific), 10% FBS (F2442; Sigma-Aldrich) and 100 U/ml penicillin, and 100 µg/ml streptomycin (P4333; Sigma-Aldrich). B cells were stained with 5 nM CellTrace Violet Cell (C34557; Thermo Fisher Scientific) for 8 min in a 37°C water bath. B cells were plated at a concentration of 5 × 10^5 cells per 200 μl in round-bottom 96-well plates treated with 0.1% B16F10 melanoma cell lysis or 10 µg/ml goat anti-mouse IgM F(ab′)2 (115-006-020; Jackson ImmunoResearch). B cells were treated with NR-V04 or DMSO for 24 h and collected for flow cytometry analysis.
Mouse tumors were excised and ∼200 mg of tumor tissue was enzymatically and mechanically digested using the mouse Tumor Dissociation Kit (Miltenyi Biotec) to obtain a single-cell suspension. […] Flow cytometry was performed on a three laser Cytek Aurora Cytometer (Cytek Biosciences) and analyzed using FlowJo software (BD Biosciences). […]

Test [2] concerns the target T1, NR4A1 and VHL. The test can be described thus: Proximity ligation assay (PLA) for the NR4A1-VHL ternary complex. It is filed as cell-based. On the set-up: endogenous in cells; host or cells: CHL-1 and A375 human melanoma cells. The following applies: CHL-1 and A375 cells, 500 nM, 16 h, 0.5 μM MG132 pretreatment. The procedure: 5 × 10^4 CHL-1 and A375 cells were cultured in Nunc Lab-Tek Chamber Slide (177402; Thermo Fisher Scientific). The cells were treated with DMSO, 500 nM celastrol, and 500 nM NR-V04 for 16 h with MG132 inhibitor. The PLA was conducted with Duolink In Situ Red Starter Kit Mouse/Rabbit (DUO92101; Sigma-Aldrich) following the standard protocol. Additionally, a non-stain cell group was included as a negative control to account for background signal during PLA assay. The signal was detected using a confocal microscope (LSM 710; Zeiss). Primary antibody: NR4A1 (HPA059742, 2 μg/ml, isotype-rabbit; Sigma-Aldrich) and VHL (MA5-13940, 2 μg/ml, isotype-mouse; Thermo Fisher Scientific).

T1 sequence (P22736 whole entry): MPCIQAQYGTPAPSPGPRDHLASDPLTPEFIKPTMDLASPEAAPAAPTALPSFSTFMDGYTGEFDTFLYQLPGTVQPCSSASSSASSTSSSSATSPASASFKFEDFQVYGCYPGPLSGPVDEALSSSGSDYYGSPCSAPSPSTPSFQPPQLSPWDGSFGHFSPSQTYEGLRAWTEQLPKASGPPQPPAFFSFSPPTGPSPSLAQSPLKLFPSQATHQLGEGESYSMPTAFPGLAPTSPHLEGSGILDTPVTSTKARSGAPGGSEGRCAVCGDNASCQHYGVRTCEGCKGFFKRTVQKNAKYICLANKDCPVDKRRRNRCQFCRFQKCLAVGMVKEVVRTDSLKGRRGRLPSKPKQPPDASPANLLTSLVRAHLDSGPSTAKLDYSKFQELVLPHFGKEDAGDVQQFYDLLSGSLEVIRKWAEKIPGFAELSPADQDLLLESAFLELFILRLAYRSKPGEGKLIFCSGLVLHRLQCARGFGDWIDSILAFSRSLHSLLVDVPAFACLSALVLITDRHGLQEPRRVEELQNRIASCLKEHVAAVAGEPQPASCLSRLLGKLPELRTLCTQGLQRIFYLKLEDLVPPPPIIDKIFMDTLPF
T1 sequence (P40337 whole entry): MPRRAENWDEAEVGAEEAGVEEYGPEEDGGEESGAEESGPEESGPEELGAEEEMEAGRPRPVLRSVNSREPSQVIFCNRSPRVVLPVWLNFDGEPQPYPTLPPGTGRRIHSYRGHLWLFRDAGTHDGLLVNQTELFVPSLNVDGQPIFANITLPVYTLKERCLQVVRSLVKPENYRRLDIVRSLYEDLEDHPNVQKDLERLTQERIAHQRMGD
T1 sequence (Q15369 whole entry partner): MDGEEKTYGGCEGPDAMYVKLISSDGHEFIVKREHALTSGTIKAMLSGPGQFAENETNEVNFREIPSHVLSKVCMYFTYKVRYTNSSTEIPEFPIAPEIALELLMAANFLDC
T1 sequence (Q15370 whole entry partner): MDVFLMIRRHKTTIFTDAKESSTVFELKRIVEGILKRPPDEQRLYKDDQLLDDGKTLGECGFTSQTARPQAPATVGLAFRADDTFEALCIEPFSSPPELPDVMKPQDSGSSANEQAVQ

Turning to `CC1=C(O)C(=O)C=C2C1=CC=C1[C@@]2(C)CC[C@@]2(C)[C@@H]3C[C@](C)(C(=O)NCCOCCOCCOCCOCC(=O)N[C@H](C(=O)N4C[C@H](O)C[C@H]4C(=O)N[C@@H](C)c4ccc(-c5scnc5C)cc4)C(C)(C)C)CC[C@]3(C)CC[C@]12C` [NR-V04], the Co-IP complex formation entry on NR4A1 and VHL [1] is “complex formation between NR4A1 and VHL”. Further, in the test on splenic B cells, the B cell proliferation result is “significantly increased B cell proliferation” and the “NR4A1 in B cells” value is on record as “led to NR4A1 degradation in B cells”. Moreover, the “PLA signals (ternary complex formation NR4A1-VHL)” value at NR4A1 and VHL [2] is “induced strong PLA signals”.
